From patent US20060122104A1, “Methods for in vitro expansion and transdifferentiation of human pancreatic acinar cells into insulin-producing cells” (priority 2002, published 2006)

Tested on: primary human pancreatic cells
Test: Attachment and growth of primary pancreatic cells on ECM-coated surfaces (cell counting, MTS metabolic activity assay)
Format: cell-based
Settings: 10^5 cells/cm^2, grown 8 days; FIG. 4A
Experimental: The attachment of primary human pancreatic cells was evaluated by counting the number of attached cells vs. the number of cells initially seeded on a panel of ECM surfaces comprised of Collagen I (1 μg/cm^2), Fibronectin (3 μg/cm^2), Laminin (2 μg/cm^2), Vitronectin (1 μg/cm^2), Matrigel (1 μg/cm^2), Human ECM (1 μg/cm^2), or Poly-D -Lysine (3 μg/cm^2). In one condition, a mixture of Collagen IV, Laminin, and Fibronectin was utilized. […] Excess ECM solution was then removed and surfaces were rinsed twice in water. Just before seeding cells, the water was aspirated, then cells were seeded onto the ECM surface at a density of 1×10^5 cells/cm^2 in growth medium (PCM) composed of DMEM:HamsF12 mixture (1:1) with 4 mM glutamine, 1×ITS supplement (GIBCO 51500-056), 10% Fetal Calf Serum (Inactivated, Qualified, GIBC 26140-079), and 10 ng/ml Epidermal Growth Factor (EGF) (BD 4001). Cells were seeded onto tissue-culture polystyrene surface as a control. […] The metabolic activity of cells subjected to the various conditions was determined by an MTS assay. Viable cells were measured using the MTS assay (Promega CellTiter 96 Aqueous One Solution Cell Proliferation Assay), a colorimetric method for determining the number of viable cells in proliferation or cytotoxicity. […]

Row | Substance | cell attachment and expansion on coated surface
1 | Fibronectin | suitable surface for cell attachment and expansion
2 | Laminin | suitable surface for cell attachment and expansion
